Test: in-vitro dripping (seepage) assay: distance traveled by a drop down an inclined glass plate
Assay type: physicochemical
Method: An in-vitro assay is utilized which measures the distance traveled by a 10 µ1 drop of the test formulation down a glass plate inclined at 45°C for 10 seconds. The test formulation is colored with dye to enhance the visual movement of the product. Pure ethanol (Ethanol, U.S.P) is used as the standard against which the test formulation is compared. […] The solvent system for each test formulation is 50:50 EtOH:HOH.
The ratio of the distance traveled ("dripping distance") by the particular test formulation to that of the ethanol standard provides the "dripping index" number for the test formulation.

With `CCO` [100% Ethanol, Ethanol] the “Dripping Distance” value (10 µ1 drop, glass plate inclined at 45°C, 10 seconds, solvent 50:50 EtOH:HOH) was 60 mm and the “Dripping Index” value (ratio of dripping distance of the test formulation to that of the ethanol standard) was 1.00.

From patent EP0188793A1, “Improved topical minoxidil composition” (Richardson-Vicks, Inc., priority 1984, dated 1986)
